Measured values: US11053204B2, “Pyrimidinyloxy benzene derivatives as herbicides” (FMC Corporation, priority 2015, dated 2021)

Key:
Assay type in all cases: in vivo
[1] = test system: pigweed (Amaranthus retroflexus); assay: Test C postemergence, plant response rating; conditions: for Pigweed plant response rating / pest or weed control at 62 g/ha / pest or weed control at 125 g/ha: scale 0 to 100 (0 no effect, 100 complete control)
Summary of the method: (§1)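 Pre-emergence: seeds sown in loam soil–sand blend or silt loam and sprayed with test chemicals in a non-phytotoxic solvent mixture with surfactant. Post-emergence: plants 2 to 18 cm (1- to 4-leaf stage) in peat-based potting medium, same formulation. Greenhouse 13 to 15 d; visual rating 0 (no effect) to 100 (complete control) versus controls.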

[2] = test system: galium (catchweed bedstraw, Galium aparine); assay: Test C preemergence, plant response rating
[3] = test system: johnsongrass (Sorghum halepense); assay: Test C postemergence, plant response rating; conditions: for Plant response rating, Johnsongrass: scale 0 to 100; for Johnsongrass plant response rating: scale 0 to 100 (0 no effect, 100 complete control)
Summary of the method: as §1

[4] = test system: johnsongrass (Sorghum halepense); assay: Test C preemergence, plant response rating
[5] = Amaranthus retroflexus, post-emergence, 16 g ai/ha, scale 0 to 100
[6] = Amaranthus retroflexus, post-emergence, 31 g ai/ha, scale 0 to 100
[7] = Amaranthus retroflexus, post-emergence, 62 g ai/ha
[8] = Amaranthus retroflexus, post-emergence, 125 g ai/ha

| Structure (SMILES) | Plant response rating, Pigweed ([1]; 31 g ai/ha, scale 0 to 100) | Pigweed plant response rating ([1]; 62 g ai/ha) | Pigweed plant response rating ([1]; 125 g ai/ha) | pest or weed control at 16 g/ha [1, 5] [%] | pest or weed control at 31 g/ha [1, 6] [%] | pest or weed control at 62 g/ha [1, 7] [%] | pest or weed control at 125 g/ha [1, 8] [%] | Plant response rating, Galium ([2]; 16 g ai/ha, scale 0 to 100) | Plant response rating, Galium ([2]; 31 g ai/ha, scale 0 to 100) | Plant response rating, Galium ([2]; 62 g ai/ha, scale of 0 to 100) | Plant response rating, Galium ([2]; 125 g ai/ha, scale of 0 to 100) | Plant response rating, Johnsongrass ([3]; 16 g ai/ha) | Plant response rating, Johnsongrass ([3]; 31 g ai/ha) | Johnsongrass plant response rating ([3]; 62 g ai/ha) | Johnsongrass plant response rating ([3]; 125 g ai/ha) | Plant response rating, Johnsongrass ([4]; 16 g ai/ha, scale 0 to 100) | Plant response rating, Johnsongrass ([4]; 31 g ai/ha, scale 0 to 100) | Plant response rating, Johnsongrass ([4]; 62 g ai/ha, scale 0 to 100) | Plant response rating, Johnsongrass ([4]; 125 g ai/ha, scale of 0 to 100) | further results |
| --- | --- | --- | --- | --- | --- | --- | --- | --- | --- | --- | --- | --- | --- | --- | --- | --- | --- | --- | --- | --- |
| N#CCCOC(=O)c1c(Br)cccc1Oc1ncc(Cl)cn1 [Compound 7] | 40 | 60 | 70 | – | – | – | – | – | – | – | – | – | – | – | – | – | – | – | – | Plant response rating, Pigweed ([1]; 16 g ai/ha, scale 0 to 100): 35 |
| CCCOC(=O)c1c(Br)cccc1Oc1ncc(Cl)cn1 [Compound 13, propyl 2-bromo-6-[(5-chloro-2-pyrimidinyl)oxy]benzoate] | – | – | – | 75 | 70 | – | – | – | – | – | – | – | – | – | – | – | – | – | – | pest or weed control at 4 g/ha ([1]; Amaranthus retroflexus, post-emergence, 4 g ai/ha, scale of 0 to 100): 30%; pest or weed control at 8 g/ha ([1]; Amaranthus retroflexus, post-emergence, 8 g ai/ha, scale of 0 to 100): 60% |
| O=C(OCCC(F)(F)F)c1c(Cl)cccc1Oc1ncc(Cl)cn1 [Compound 15, 3,3,3-trifluoropropyl 2-chloro-6-[(5-chloro-2-pyrimidinyl)oxy]benzoate] | – | – | – | 90 | 90 | 95 | 98 | – | – | – | – | – | – | – | – | – | – | – | – | – |
| CC(CC(F)(F)F)OC(=O)c1c(Br)cccc1Oc1ncc(Cl)cn1 (stereo not drawn) [Compound 16, 3,3,3-trifluoro-1-methylpropyl 2-bromo-6-[(5-chloro-2-pyrimidinyl)oxy]benzoate] | – | – | – | 50 | 75 | 85 | 50 | – | – | – | – | – | – | – | – | – | – | – | – | – |
| O=C(OCCCC(F)(F)F)c1c(Br)cccc1Oc1ncc(Cl)cn1 [Compound 20, 4,4,4-trifluorobutyl 2-bromo-6-[(5-chloro-2-pyrimidinyl)oxy]benzoate] | – | – | – | 85 | 95 | 98 | 95 | 10 | 0 | 80 | 95 | – | – | – | – | – | – | – | – | – |
| C=CCCOC(=O)c1c(Br)cccc1Oc1ncc(Cl)cn1 [Compound 21, 3-buten-1-yl 2-bromo-6-[(5-chloro-2-pyrimidinyl)oxy]benzoate] | – | – | – | 85 | 75 | 90 | 90 | – | 0 | 5 | 100 | – | – | – | – | – | – | – | – | – |
| C=CCOC(=O)c1c(Br)cccc1Oc1ncc(Cl)cn1 [Compound 22, 2-propen-1-yl 2-bromo-6-[(5-chloro-2-pyrimidinyl)oxy]benzoate] | – | – | – | 60 | 70 | 70 | 95 | – | – | – | – | – | – | – | – | – | – | – | – | – |
| O=C(OCC(F)(F)C(F)(F)F)c1c(Br)cccc1Oc1ncc(Cl)cn1 [Compound 23, 2,2,3,3,3-pentafluoropropyl 2-bromo-6-[(5-chloro-2-pyrimidinyl)oxy]benzoate] | – | – | – | 60 | 75 | 70 | 85 | – | – | – | – | 0 | 15 | 15 | 20 | – | – | – | – | – |
| O=C(OCCC(F)(F)F)c1c(Br)cccc1Oc1ncc(Cl)cn1 [Compound 26, 3,3,3-trifluoropropyl 2-bromo-6-[(5-chloro-2-pyrimidinyl)oxy]benzoate] | – | – | – | 75 | 98 | 98 | 100 | 5 | 90 | 95 | 100 | 10 | 20 | 20 | 25 | 55 | 50 | 80 | 98 | – |
| N#Cc1cccc(Oc2ncc(Cl)cn2)c1C(=O)OCCC(F)(F)F [Compound 30] | – | – | – | – | – | – | – | 80 | 10 | 60 | 85 | – | – | – | – | 0 | 0 | 0 | 15 | – |
| O=C(OCCC(F)(F)F)c1c(Br)cccc1Oc1ncc(Br)cn1 [Compound 33] | 95 | 98 | 100 | – | – | – | – | 0 | 60 | 60 | 95 | 10 | 10 | 20 | 20 | 0 | 5 | 25 | 35 | Plant response rating, Pigweed ([1]; 16 g ai/ha, scale 0 to 100): 95 |
| O=C(OCC(F)(F)F)c1c(Br)cccc1Oc1ncc(Cl)cn1 [Compound 35] | 70 | 90 | 98 | – | – | – | – | – | – | – | – | 0 | 5 | 10 | 10 | – | – | – | – | Plant response rating, Pigweed ([1]; 16 g ai/ha, scale 0 to 100): 80 |
| N#Cc1cccc(Oc2ncc(Cl)cn2)c1CCCC(F)(F)F [Compound 72] | 85 | 85 | 100 | – | – | – | – | 5 | 75 | 90 | 100 | 5 | 10 | 10 | 10 | 5 | 65 | 70 | 100 | Plant response rating, Pigweed ([1]; 16 g ai/ha, scale 0 to 100): 80 |
| N#Cc1cccc(Oc2ncc(Cl)cn2)c1CCCCC(F)(F)F [Compound 73, 3-[(5-chloro-2-pyrimidinyl)oxy]-2-(5,5,5-trifluoropentyl)benzonitrile] | – | – | – | 90 | 85 | 100 | 100 | 5 | 10 | 100 | 100 | 5 | 10 | 20 | 20 | 0 | 40 | 80 | 95 | – |
| O=C(CCCC(F)(F)F)c1c(Br)cccc1Oc1ncc(Cl)cn1 [Compound 77] | 98 | 100 | 100 | – | – | – | – | 0 | 0 | 98 | 98 | – | – | – | – | – | – | – | – | Plant response rating, Pigweed ([1]; 16 g ai/ha, scale of 0 to 100): 95 |
| O=C(CCC(F)(F)F)c1c(Br)cccc1Oc1ncc(Cl)cn1 [Compound 92] | 90 | 98 | 100 | – | – | – | – | – | – | – | – | – | – | – | – | – | – | – | – | Plant response rating, Pigweed ([1]; 16 g ai/ha, scale of 0 to 100): 85 |
